Converted amounts (≈) assume the structure as drawn. Where two headings read alike, the source gives them in different places.

Here are results for four molecules from paper PMC10145367, “Acute and Transgenerational Effects of Non-Steroidal Anti-Inflammatory Drugs on Daphnia magna” (Toxics, 2023).

Data set [1] has as its system acid phosphatase (ACP). The data set is described as follows: Acid phosphatase activity in daphnid homogenate after chronic/transgenerational exposure. It is filed as in vivo, Daphnia magna.
Data set [2] relates to GST. The settings on record: 28-day exposure to 25 mg/L; ref [53]; cited from earlier work.
The subject of data set [3] is lipase (LIP). As to the kind of experiment: Lipase activity in daphnid homogenate after chronic/transgenerational exposure. The format is in vivo, Daphnia magna.
Data set [4] relates to D. magna. The conditions noted are these: ref [21], cited from earlier work.
The conditions of data set [5]: cited from earlier work.
Data set [6] has as its system β-galactosidase (β-gal). The conditions noted are these: 1 mg/L. As for the experimental part:
(§1) Chronic exposure was performed at 1 mg/L of each NSAID and their 1:1 mixture separately, which was selected as a non-lethal concentration. For enzyme activities in chronic and transgenerational exposures, neonates were cultured for two consecutive generations and following a 21-day recovery period (Figure 1B). […] Media and NSAIDs were renewed twice a week. Although the concentration of NSAIDs was not measured throughout the exposure, their renewal twice a week was sufficient to exert their action. […] Daphnids were fed daily with 2 mL fresh algae (C. reinhardtii) with a concentration of 6 million cells/mL, and a seaweed extract (Ascophylum nodosum) was supplemented only on the days of media change.
(§2) Five 7, 14, and 21-day-old animals were used per biological replicate and homogenized in 0.5 mL ddH2O using a pestle homogenizer. The homogenate was cleared by centrifugation (12,000× g for 5 min at 5 °C), and the clear supernatant was collected and used to assess the enzyme activity as described elsewhere. 200 μL appropriately diluted sample in buffer was assessed for the activity of phosphatases (in 100 mM acetic acid pH 4.5 for acid phosphatase or 100 mM boric acid pH 9.8 for alkaline phosphatase) using 50 μL of the substrate p-nitrophenyl phosphate (8 mM) and monitoring the production of p-nitrophenol at 405 nm after its alkalinization (with 50 μL 4M NaOH). In addition, the activities of β-galactosidase and lipase were measured with the same experimental conditions by the generation of nitrophenol from the catalysis of o-nitrophenyl-β-galactoside or p-nitrophenyl butyrate, respectively, but in phosphate buffer pH 7.2. Glutathione-S-transferase (GST) activity was assessed by the reaction of reduced glutathione with 1-chloro-2,4-dinitrobenzene. 200 μL appropriately diluted sample in phosphate buffer pH 7.2 was mixed with 50 μL 2 mM CDNB, and 6 mM reduced glutathione, and the formation of the complex was measured continuously at 340 nm and converted to units of activity with the extinction coefficient. Protein was quantified by an ultrasensitive Bradford protocol to normalize the results.

Data set [7] relates to alkaline phosphatase (ALP). The conditions noted are these: 1 mg/L. As for the experimental part:
as §1, §2

Data set [8] deals with glutathione-S-transferase (GST). The conditions noted are these: 1 mg/L. On the procedure:
as §1, §2

The subject of data set [9] is peptidase (PEP). The data set is described as follows: Peptidase activity in daphnid homogenate after chronic/transgenerational exposure. The format is in vivo, Daphnia magna.
Data set [10] deals with Daphnia magna. The data set is described as follows: Feeding assay (ingestion of fluorescent microparticles). The conditions noted are these: neonates, 1 mg/L for 24 h. It is filed as in vivo. As for the experimental part: After 24 h, twenty […] transferred in a 12-well plate with 6 mL OECD containing the carboxylate-modified polystyrene, fluorescent red microparticles (2.0 μm mean particle size) at a concentration of 13 mg/L. The animals were exposed to the microplastic for up to 90 min, and media was collected every 15 min to estimate the removed microparticles by fluorescence at Ex 560 Em 590 nm using a TECAN plate reader. The concentration of microparticles in the media was optimized to ensure an excess of microparticles for the accurate quantification of ingestion. Furthermore, we have extensively tested these particles, which show no toxicity to the […] for the short exposure periods used. We performed control experiments with neonates, as they would be more sensitive, for even up to 10 h to microplastics at even higher concentrations (up to 52 mg/L), and all animals from all experiments following the feeding assay were alive and healthy. Fluorescence was expressed to the amount of ingested microparticles using a standard curve. To confirm the ingestion of microparticles in the gut of […], animals were imaged with a stereoscope and fluorescence microscopy using the TRITC filter for carboxyl functionalized particles. […] The animals were fed daily with 2 mL of fresh algae (Chlamydomonas reinhardtii) with a concentration of 6 million cells/mL. […]

Data set [11] has as its system Daphnia magna. As to the kind of experiment: Acute toxicity (immobilization) of neonates, 24 h toxicity curves.
Data set [12] has as its system GST. More on the design: method as in PMID 32259738. The settings on record: exposure for 14 days; ref [71]; cited from earlier work.
The subject of data set [13] is Daphnia magna. The conditions noted are these: cited from earlier work.
In data set [14] the test system is glutathione-S-transferase (GST). More on the design: method as in PMID 32806449. The conditions noted are these: intermediate concentrations (1.2 and 6 μg/L); ref [67]; cited from earlier work.
Data set [15] deals with acid phosphatase (ACP). Also noted: method as in PMID 36835510. The conditions noted are these: chronic exposure of daphnids; ref [30]; cited from earlier work.
Data set [16] deals with alkaline phosphatase (ALP). Also noted: method as in PMID 36835510. The settings on record: chronic exposure of daphnids; ref [30]; cited from earlier work.
Data set [17] has as its system peptidase (PEP). The conditions noted are these: cited from earlier work.
The mark [18] stands for this setting: 1 mg/L, age 7 days, first generation.
Where [19] appears, read: 1 mg/L, age 21 days, 2nd generation.
Where [20] appears, read: 1 mg/L, age 21 days, first generation.
The mark [21] stands for this setting: age 21 days, 3rd generation recovery in clean OECD media after two generations at 1 mg/L.
Setting [22] is: 1 mg/L, age 14 days, first generation.
Setting [23] is: neonates, 24 h exposure, immobilization.

In general, EC50 refers to the concentration giving half of the maximal effect. A lower EC50 goes with an effect from little substance. The EC10 is the concentration needed for an effect of 10%. A lower EC10 goes with greater potency. By EC20 is commonly meant the point of the concentration-response curve where the effect stands at 20%. Read a high EC20 as weaker potency. As to `CC(C)Cc1ccc(C(C)C(=O)O)cc1` (stereo not shown) [Ibuprofen], the ACP enzyme activity in [1] (setting [18]) is recorded as 8.14 ± 0.33 units/mg protein; in [1] (setting [19]), 2.78 ± 0.21 units/mg protein; in data set [1] (setting [20]), 3.09 ± 0.04 units/mg protein; in [1] (setting [21]), 3.24 ± 0.47 units/mg protein. The “effect on activity of GST” value in [2] is recorded as “increase in the activity of GST”; in data set [12] it was “reduced the activity of GST”. For the same molecule, the LIP enzyme activity in data set [3] (setting [18]) came to 123.76 ± 2.26 units/mg protein; in data set [3] (setting [22]), 148.12 ± 37.62 units/mg protein; in [3] (setting [19]), 47.53 ± 1.66 units/mg protein; in data set [3] (setting [20]) it was 78.43 ± 4.27 units/mg protein; in data set [3] (setting [21]) it was 53.32 ± 6.51 units/mg protein. The figures for the “change of LIP activity compared with DMSO” value in data set [3] (setting [18]) and in data set [3] (setting [19]) were −10% and −28%, respectively. Moreover, in [4] (neonates exposed to 20 mg/L and 40 mg/L for 14 days), the survival entry was “unaffected”. Also, in data set [4] (neonates exposed to 80 mg/L for 14 days), the reduction of survival is 19%. Besides, the average strength maintained in data set [5] (for 5 months, ref [39]) was greater than 90%. In addition, the time stable in [5] (room temperature, ref [37],[38]) is listed as 15 days. Moreover, the “change of β-gal activity compared with DMSO” value was −17% in data set [6] (age 7 days, first generation) and −17% in data set [6] (age 21 days, 2nd generation). The β-gal enzyme activity in data set [6] (age 7 days, first generation) is recorded as 1.26 ± 0.06 units/mg protein; in [6] (age 14 days, first generation), 2.08 ± 0.75 units/mg protein; in data set [6] (age 21 days, 2nd generation), 3.93 ± 0.22 units/mg protein; in [6] (age 21 days, first generation) it was 5.13 ± 0.25 units/mg protein. Further, the ALP enzyme activity in data set [7] (age 7 days, first generation) is on record as 6.55 ± 0.26 units/mg protein; in [7] (age 14 days, first generation), 2.63 ± 0.14 units/mg protein; in data set [7] (age 21 days, 2nd generation), 3.27 ± 0.15 units/mg protein. Besides, in data set [7] (age 21 days, 2nd generation), the “change of ALP activity compared with DMSO” value was −10%. Also, the GST enzyme activity amounted to 95.6 ± 10 munits/mg protein in [8] (age 7 days, first generation); 151.7 ± 11.7 munits/mg protein in data set [8] (age 14 days, first generation); 123.5 ± 2.1 munits/mg protein in [8] (age 21 days, 2nd generation); 67.6 ± 4.4 munits/mg protein in data set [8] (age 21 days, first generation). Moreover, the “change of GST activity compared with DMSO” value in data set [8] (age 21 days, 2nd generation) is listed as “+18%”. Also, the PEP enzyme activity in data set [9] (setting [18]) stood at 29.54 ± 7.34 units/mg protein; in data set [9] (setting [22]), 1.93 ± 0.27 units/mg protein; in [9] (setting [20]), 10.52 ± 1.39 units/mg protein; in [9] (setting [21]) it was 4.61 ± 0.35 units/mg protein. The “reduction of feeding rate compared to DMSO” value in data set [10] is 30%. Also, the EC50 in data set [11] (Daphnia magna, 24 h) was determined as 17.8 µg/mL (≈ 86.3 µM). The EC1 in [11] (setting [23]) is 8.62 mg/L. For the same molecule, the EC5 in data set [11] (setting [23]) was determined as 11.19 mg/L. Further, the EC10 in data set [11] (setting [23]) turned out to be 12.59 µg/mL (≈ 61 µM). In data set [11] (setting [23]), this molecule gave a concentration for an effect of 20% (EC20) of 14.3 µg/mL (≈ 69.3 µM).
Turning to `CC(C(=O)O)c1cccc(C(=O)c2ccccc2)c1` (stereo not shown) [ketoprofen], the effect on feeding entry in data set [13] (D5 daphnids, ref [67]) is “did not affect the feeding”. The “effect on activity of GST” value in data set [14] is “increased the activity of GST”.
`O=C(O)Cc1ccccc1Nc1c(Cl)cccc1Cl` [Diclofenac]: the “effect on activity of ACP” value in [15] is reported as “reduced”. Further, the “effect on feeding rate” value in data set [13] (neonates of D. magna, ref [67],[68]) is given as “reduce the feeding rate”. Besides, the “effect on activity of ALP” value in data set [16] is “reduced”. The “effect on activity of PEP” value in data set [17] (chronic exposure of daphnids, ref [30]) is “increasing”.
`CC(=O)Oc1ccccc1C(=O)O` [acetylsalicylic acid]: in data set [17] (acute exposure of daphnids, ref [28]), the “effect on activity of PEP” value is reported as “decreased”.
